Series [1] is described as follows: Solubility of paclitaxel in organic solvents.
Series [2] is described as follows: Recovery of paclitaxel added to polymer mixtures after heating (reverse phase HPLC, UV detection). It is filed as physicochemical. How it is done: The desirability of removing unreacted starting materials and/or acidic reaction by-products can be seen by reference to the data in Table 1. […] According to the data, when paclitaxel is combined with a diblock copolymer having up to 2% residual monomer and up to 0.2 μmol/mg acid content (expressed as the number of protons titrated in a solution prepared by dissolving 1 mg of diblock copolymer in water), after heating, only 95% of the paclitaxel initially added to the mixture could be recovered, as quantified using a reverse phase HPLC assay with UV detection and a taxane optimized C18 column.

Turning to `CC(=O)O[C@H]1C(=O)[C@@]2(C)[C@H]([C@H](OC(=O)c3ccccc3)[C@]3(O)C[C@H](OC(=O)[C@H](O)[C@@H](NC(=O)c4ccccc4)c4ccccc4)C(C)=C1C3(C)C)[C@]1(OC(C)=O)CO[C@@H]1C[C@@H]2O` [paclitaxel], the “amount of paclitaxel that may be dissolved in NMP” value in series [1] (in 1 mL of NMP) was found to be 535 mg. Besides, in series [1] (in ethanol (volume not given)), the “amount of paclitaxel that may be dissolved in ethanol” value amounted to 26 mg. The “paclitaxel initially added that could be recovered after heating” value in series [2] (combined with diblock copolymer having up to 2% residual monomer and up to 0.2 μmol/mg acid content) is listed as 95%. In series [2] (combined with methoxypolyethylene glycol having no measured acidic components and no DL-lactide monomer), the “paclitaxel recovered after heating” value turned out to be 99%. Moreover, the “paclitaxel that could be recovered after heating” value in series [2] (diblock copolymer with greatly reduced quantities of residual monomer and acidic components) stood at 98%.

The record behind these values is patent US20080132564A1, “MICELLAR DRUG DELIVERY VEHICLES AND PRECURSORS THERETO AND USES THEREOF” (ANGIOTECH INTERNATIONAL AG, priority 2001, published 2008).
